In US20110105544A1, “CARBOXYLIC DERIVATIVES FOR USE IN THE TREATMENT OF CANCER” (priority 2007, published 2011):
Where a name gives a salt, the structure may show the parent alone.

Columns and labels:
[1] = target: T1, human recombinant HDAC 2 (Homo sapiens, UniProt Q92769); experiment: HDAC inhibition assay (Fluor de Lys), HDAC2; type: biochemical; conditions: inhibitor-protein incubation 2 hours, reaction 1 h 30 min, 37° C.
T1 construct: purchased BPS Bioscience 50002
Experimental: All assays were carried out in the assay buffer: 50 mM Tris/Cl, pH 8.0, 137 mM NaCl, 2.7 mM KCl, 1 mM MgCl2).
Reactions were carried out in a 96-wells microplate (Corning 96 well Flat Bottom Non-binding surface (black) ref. 3651).
Potential inhibitors were added after five fold serial dilutions in DMSO. Final DMSO concentration in the assay microplate was kept at 2%.
Afterwards, human recombinant HDAC1, HDAC 2 or HDAC 8 were added up to […] respectively in assay buffer. When necessary, the mixture was incubated at room temperature prior the addition of substrate.
Total reaction volume of 50 μl. Human recombinant HDACs could be acquired from commercial sources (HDAC1: ref. #50001, BPS Bioscience™; HDAC 2: ref. #50002, BPS Bioscience™; HDAC 8: ref. #50008, BPS Bioscience™).
Reactions were stopped with 50 μl Developer (KI-105 Fluor de Lys™, BIOMOL®) with 2 μmol/L trichostatin A (TSA, final concentration 1 μmol/L). After 20 minutes at 37° C., fluorescence (excitation 360 nm, emission 460 nm) was measured using an Infinite F200 fluorimeter (Tecan). Background was determined in reactions using substrate in the absence of enzyme.
IC50 values are defined as the compound concentration at which the deacetylase activity is 50% inhibited. In these assays the following grading was used (I: IC50≦10 μM; II: 10 μM<IC50≦100 μM; III: 100 μM<IC50≦1 mM) The results obtained are summarized in Table 4.

[2] = test system: human colon cancer cell line HCT116; experiment: alamarBlue viability assay, HCT116; type: cell-based; conditions: HCT-116, 72 hours, dose required to inhibit cell growth by 50%
Experimental: The human colon cancer cell line HCT116 and the human breast cancer cell line MCF-7 were from the American Type Culture Collection (ATCC; CCL-247 and HTB-22, respectively).
The HCT116 cell line was maintained in DMEM GlutaMAX (Invitrogen) supplemented with 10% fetal calf serum and the MCF7 cell line was maintained in RPMI1640 GlutaMAX (Invitrogen) containing 1 mM sodium piruvate and 10% fetal calf serum.
Cells were grown in a humidified incubator at 37° C. in 5% CO2.
Cells were plated in 96-well plates at a density of 6000 cells/well in 100 μl medium 24 h before addition of drugs. […] To do so, a drugs-dilution plate at twice the screening concentrations was prepared. 72 hours later, alamarBlue (Biosource, Invitrogen) viability assay was performed following manufacturer's protocol. In brief, alamarBlue diluted in media was added to cells to have a 5% solution. Cells were incubated at 37° C., 3 hours and at room temperature, 30 min. Cells with no drug and, cells with no drug and lysed with triton X-100 were used as controls. Fluorescence was monitored at 530 nm excitation and 590 nm emission wavelengths. Results were quantified using Infinite F200 Microplate Reader (Tecan Group, Ltd.). EC50 were calculated as the dose of drugs required to inhibit cell growth by 50%, with Origin 7.0 computer program.

T1 sequence (Q92769 whole entry): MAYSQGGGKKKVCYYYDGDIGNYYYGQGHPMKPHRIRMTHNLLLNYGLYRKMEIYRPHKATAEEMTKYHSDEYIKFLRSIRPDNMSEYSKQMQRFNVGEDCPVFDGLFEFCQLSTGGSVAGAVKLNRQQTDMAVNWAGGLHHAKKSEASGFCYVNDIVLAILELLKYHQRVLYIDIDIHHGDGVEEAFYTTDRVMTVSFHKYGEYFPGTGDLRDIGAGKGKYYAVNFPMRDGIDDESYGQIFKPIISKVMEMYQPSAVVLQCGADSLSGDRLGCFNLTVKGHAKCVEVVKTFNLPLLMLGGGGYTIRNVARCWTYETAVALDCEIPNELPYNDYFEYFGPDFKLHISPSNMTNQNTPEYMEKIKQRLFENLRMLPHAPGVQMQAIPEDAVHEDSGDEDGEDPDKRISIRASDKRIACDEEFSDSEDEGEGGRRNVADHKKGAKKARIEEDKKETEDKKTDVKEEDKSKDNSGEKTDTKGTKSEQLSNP

| IC50 [1] | EC50 [2] | Compound |
| --- | --- | --- |
| 10 to 100 µM | 107 µM | O=C(O)C(CCCc1cccc2ccccc12)CCc1ccc(-c2cccnc2)cc1 (stereo not drawn) [Example 80, 5-(1-Naphthyl)-2-[2-(4′-pyridin-3-ylphenyl)ethyl]-pentanoic acid] |
| 10 to 100 µM | 121 µM | Cc1ccc(S(=O)(=O)Nc2cccc(CCCC(CCc3ccccc3)C(=O)O)c2)cc1 (stereo not drawn) [Example 25, 5-(3′-{[(4-Methylphenyl)sulfonyl]amino}phenyl)-2-(2-phenylethyl)pentanoic acid] |
| 100 to 1000 µM | 107 µM | O=C(O)C(CCCc1ccccc1)CCc1ccc(Br)cc1 (stereo not drawn) [Example 52, 2-[2-(4-Bromophenyl)ethyl]-5-phenylpentanoic acid] |
| 10 to 100 µM | 160 µM | O=C(O)C(CCCc1ccccc1)CCc1ccc(OCc2ccccn2)cc1 (stereo not drawn) [Example 58, 2-{2-[4-(Pyridin-2-ylmethoxy)phenyl]ethyl}-5-phenylpentanoic acid] |
| 10 to 100 µM |  | COc1ccc(Oc2ccc(CCC(CCCc3ccccc3)C(=O)O)cc2)cc1 (stereo not drawn) [Example 67, 2-{2-[4-(4-Methoxyphenoxy)phenyl]ethyl}-5-phenylpentanoic acid] |
| 10 to 100 µM | 166 µM | O=C(O)C(CCCc1ccccc1)CCc1ccc(-c2ccncc2)cc1 (stereo not drawn) [Example 76, 2-{2-[(4′-Pyridinyl)phenyl-4-yl]ethyl}-5-phenylpentanoic acid hydrochloride] |
| 10 to 100 µM | 94.5 µM | O=C(O)C(CCCc1ccccc1)CCc1ccc(-c2ccoc2)cc1 (stereo not drawn) [Example 74, 2-{2-[4′-(3-Furyl)phenyl]ethyl}-5-phenylpentanoic acid] |
| 100 to 1000 µM | 36.7 µM | O=C(O)C(CCCc1cccc2ccccc12)CCc1ccc(-c2cccs2)cc1 (stereo not drawn) [Example 79, 5-(1-Naphthyl)-2-[2-(4′-thien-2-ylphenyl)ethyl]-pentanoic acid] |
|  | 85 µM | CC(=O)OCOC(=O)C(CCc1ccccc1)Cc1ccccc1 (stereo not drawn) [Example 15, (Acetyloxy)methyl 2-benzyl-4-phenylbutanoate] |
| 100 to 1000 µM |  | O=C(O)C(CCc1ccccc1)SCCc1ccccc1 (stereo not drawn) [Example 68, 4-Phenyl-2-[(2-phenylethyl)thio]butanoic acid] |
| 10 to 100 µM | 88 µM | N#Cc1ccc(Oc2ccc(CCC(CCCc3ccccc3)C(=O)O)cc2)cc1 (stereo not drawn) [Example 63, 2-{2-[4-(4-cyanophenoxy)phenyl]ethyl}-5-phenylpentanoic acid] |
| 100 to 1000 µM | 103 µM | CCc1ccc(CCC(CCCc2cccc3ccccc23)C(=O)O)cc1 (stereo not drawn) [Example 50, 5-(1-Naphthyl)-2-[2-(4-ethylphenyl)ethyl]-pentanoic acid] |
| 10 to 100 µM | 71.4 µM | O=C(O)C(CCCc1ccccc1)CCc1ccc(NCc2ccccc2)cc1 (stereo not drawn) [Example 33, 2-[2-(4-(Benzylamino)phenyl)ethyl]-5-phenylpentanoic acid] |
|  | 56 µM | CC(=O)OCOC(=O)C(CCCc1ccccc1)CCc1ccc(OCc2ccccc2)cc1 (stereo not drawn) [Example 56, (Acetyloxy)methyl 2-[2-(4-benzyloxyphenyl)ethyl]-5-phenyl pentanoate] |
| 100 to 1000 µM |  | O=C(O)C(CCCc1ccccc1)CCc1ccc(Oc2ccc(F)cc2)cc1 (stereo not drawn) [Example 64, 2-{2-[4-(4-Fluorophenoxy)phenyl]ethyl}-5-phenylpentanoic acid] |
| 10 to 100 µM | 256 µM | O=C(O)C(CCCCc1ccccc1)CCc1ccccc1 (stereo not drawn) [Example 14, 6-Phenyl-2-(2-phenylethyl)hexanoic acid] |
| 100 to 1000 µM | 825 µM | O=C(O)C(CCCc1ccccc1)SCc1ccccc1 (stereo not drawn) [Example 70, Sodium 2-(benzylthio)-5-phenylpentanoate] |
| 10 to 100 µM | 87.2 µM | O=C(O)C(CCCc1ccccc1)CCc1ccc(-c2cccs2)cc1 (stereo not drawn) [Example 78, 5-Phenyl-2-[2-(4′-thien-2-ylphenyl)ethyl]pentanoic acid] |
| 10 to 100 µM |  | O=C(O)C(CCCc1ccccc1)CCC1CNc2ccccc21 (mixture of isomers) [Example 53, 2-[2-(2,3-Dihydro-1H-indol-3-yl)ethyl]-5-phenylpentanoic acid] |

| IC50 [1] | EC50 [2] | Compound |
| --- | --- | --- |
|  | 23 µM | CCc1ccc(CCC(CCCc2ccc(S(=O)(=O)Nc3ccccc3)cc2)C(=O)OC)cc1 (stereo not drawn) [Example 47, Methyl 5-[4-(anilinosulfonyl)phenyl]-2-[2-(4-ethylphenyl)ethyl]pentanoate] |
| 10 to 100 µM | 155 µM | N#Cc1cccc(Oc2ccc(CCC(CCCc3ccccc3)C(=O)O)cc2)c1 (stereo not drawn) [Example 62, 2-{2-[4-(3-cyanophenoxy)phenyl]ethyl}-5-phenylpentanoic acid] |
|  | 95 µM | CC(=O)OCOC(=O)C(CCCc1cccc(S(=O)(=O)Nc2ccc(C)cc2)c1)CCc1ccccc1 (stereo not drawn) [Example 18] |
|  | 62 µM | COc1ccc(NS(=O)(=O)c2cccc(CCCC(CCc3ccccc3)C(=O)OCOC(C)=O)c2)cc1OC (stereo not drawn) [Example 17, (Acetyloxy)methyl 5-(3-{[(3,4-dimethoxyphenyl)amino]sulfonyl}phenyl)-2-(2-phenylethyl)pentanoate] |
|  | 267 µM | CC(=O)OCOC(=O)C(CCCc1ccccc1)CCc1ccccc1 (stereo not drawn) [Example 16, (Acetyloxy)methyl 5-phenyl-2-(2-phenylethyl)pentanoate] |
| 10 to 100 µM | 112 µM | CCc1ccc(CCC(CCCCc2ccccc2)C(=O)O)cc1 (stereo not drawn) [Example 48, 2-[2-(4-Ethylphenyl)ethyl]-6-phenylhexanoic acid] |
| 100 to 1000 µM |  | O=C(O)C(CCCc1ccccc1)CCc1ccc(OCc2ccncc2)cc1 (stereo not drawn) [Example 60, 2-{2-[4-(Pyridin-4-ylmethoxy)phenyl]ethyl}-5-phenylpentanoic acid] |
| 100 to 1000 µM |  | O=C(O)C(CCCc1ccccc1)CCc1ccc(Oc2ccc(C(F)(F)F)cc2)cc1 (stereo not drawn) [Example 66, 2-{2-[4-(4-Trifluoromethylphenoxy)phenyl]ethyl}-5-phenyl pentanoic acid] |
|  | 56 µM | CNS(=O)(=O)c1cccc(CCCC(CCc2ccccc2)C(=O)OC)c1 (stereo not drawn) [Example 42, Methyl 5-(3-[(methylamino)sulfonyl]phenyl)-2-(2-phenylethyl)pentanoate] |
| 10 to 100 µM |  | O=C(O)C(CCCc1ccccc1)CCc1ccc(OCc2cccnc2)cc1 (stereo not drawn) [Example 59, 2-{2-[4-(Pyridin-3-ylmethoxy)phenyl]ethyl}-5-phenyl pentanoic acid] |
| 10 to 100 µM | 70.7 µM | N#Cc1ccccc1Oc1ccc(CCC(CCCc2ccccc2)C(=O)O)cc1 (stereo not drawn) [Example 61, 2-{2-[4-(2-Cyanophenoxy)phenyl]ethyl}-5-phenylpentanoic acid] |
| 100 to 1000 µM |  | O=C(O)C(CCCc1ccccc1)CCc1ccc(O)cc1 (stereo not drawn) [Example 54, 2-[2-(4-hydroxyphenyl)ethyl]-5-phenylpentanoic acid] |
| 100 to 1000 µM |  | O=C(O)C(CCCc1ccccc1)CCc1ccc(Oc2ccccc2)cc1 (stereo not drawn) [Example 65, 2-{2-[4-Phenoxyphenyl]ethyl}-5-phenylpentanoic acid] |
| 10 to 100 µM | 95 µM | Cc1ccc(NS(=O)(=O)c2cccc(CCCC(CCCc3ccccc3)C(=O)O)c2)cc1 (stereo not drawn) [Example 44, 5-[3-(4-methylanilinosulfonyl)phenyl]-2-(3-phenylpropyl)pentanoic acid] |
| 100 to 1000 µM | 48.6 µM | O=C(O)C(CCCc1ccccc1)CCc1ccc(-c2ccco2)cc1 (stereo not drawn) [Example 73, 2-{2-[4′-(2-Furyl)phenyl]ethyl}-5-phenylpentanoic acid] |
| 100 to 1000 µM | 184 µM | O=C(O)C(CCCc1ccccc1)CCc1ccc(-c2ccsc2)cc1 (stereo not drawn) [Example 75, 2-{2-[4′-(3-Thienyl)phenyl]ethyl}-5-phenylpentanoic acid] |
| 100 to 1000 µM |  | Nc1ccc(CCC(CCCc2ccccc2)C(=O)O)cc1 (stereo not drawn) [Example 32, 2-[2-(4-Aminophenyl)ethyl]-5-phenylpentanoic acid] |
| 10 to 100 µM | 88.3 µM | O=C(O)C(CCCc1ccccc1)CCc1ccc(-c2ccccc2)cc1 (stereo not drawn) [Example 72, 2-[2-(1,1′-Biphenyl-4-yl)ethyl]-5-phenylpentanoic acid] |
